# Experiments:
# [1] = system: MCP-1; test: Fat tissue MCP-1 mRNA by real-time PCR in HF/HS diet-fed mice; type: in vivo, mouse; conditions: C57BL/6J mice; Yabukita 0.2% and/or eriodictyol 0.45 g/kg diet; 8 weeks; FIG. 5
# Excerpt: Male C57BL/6J mice at 12 weeks of age were preliminarily kept for 1 week and then divided into 5 groups such that the average body weight was equal in all groups, i.e., a control (AIN-93G-based diet) group, a HF/HS (high-fat high-sucrose diet) group, a Yabukita (0.2%) (HF/HS+Yabukita) group, an eriodictyol (HF/HS+eriodictyol) group, and a Yabukita+eriodictyol (HF/HS+Yabukita+eriodictyol) group. A feed supplemented with Yabukita (0.2%) and eriodictyol (0.45 g/kg diet) was given to the mice. The feed was given in an amount of 4 g/day and the mice were kept for 8 weeks under ad libitum drinking conditions. After being fasted for 16 hours, the mice were sacrificed by abdominal aortic puncture under isoflurane anesthesia. The collected blood samples were allowed to stand at 37° C. for 2 hours to cause coagulation and then centrifuged at 4° C. at 2000×g for 15 minutes to collect serum fractions. The values of serum total cholesterol and LDL were measured. […] Yabukita and eriodictyol were examined for their effect on obesity in high-fat high-sucrose diet-fed obese model mice. […] After being measured for their body weight, the mice were fasted for 16 hours and then sacrificed by abdominal aortic puncture under isoflurane anesthesia. […] The values of serum total cholesterol and LDL were measured.
# [2] = system: low density lipoprotein receptor (LDLR); test: Liver LDLR mRNA by real-time PCR in HF/HS diet-fed mice; type: in vivo, mouse; conditions: HF/HS diet-fed C57BL/6J mice; Yabukita 0.2% and/or eriodictyol 0.45 g/kg diet; 8 weeks; FIG. 6
# Excerpt: Male C57BL/6J mice at 12 weeks of age were preliminarily kept for 1 week and then divided into 5 groups such that the average body weight was equal in all groups, i.e., a control (AIN-93G-based diet) group, a HF/HS (high-fat high-sucrose diet) group, a Yabukita (0.2%) (HF/HS+Yabukita) group, an eriodictyol (HF/HS+eriodictyol) group, and a Yabukita+eriodictyol (HF/HS+Yabukita+eriodictyol) group. A feed supplemented with Yabukita (0.2%) and eriodictyol (0.45 g/kg diet) was given to the mice. The feed was given in an amount of 4 g/day and the mice were kept for 8 weeks under ad libitum drinking conditions. After being fasted for 16 hours, the mice were sacrificed by abdominal aortic puncture under isoflurane anesthesia. […] Yabukita and eriodictyol were examined for their effect on cholesterol metabolism-related gene expression in the liver of high-fat high-sucrose diet-fed obese model mice. C57BL/6J mice were preliminarily kept for 1 week and then divided into the respective groups such that the average body weight was equal in all groups. Each feed was given in an amount of 4 g/day and the mice were kept for 8 weeks under ad libitum drinking conditions. After being fasted for 16 hours, the mice were sacrificed by abdominal aortic puncture under isoflurane anesthesia.
# [3] = system: Human multiple myeloma cell line U266; test: Anticancer effect, viable cells by trypan blue assay (24-well plates, FIG. 14-19); type: cell-based; conditions: 5 μM each, 96 hours
# Method: Human multiple myeloma cell line U266 was subcultured and maintained in RPMI 1640 medium supplemented with 10% fetal bovine serum (FCS) under conditions of 37° C. and water vapor-saturated 5% CO2. The cells were maintained in the logarithmic growth phase. The RPMI 1640 medium used for culture was prepared as follows: per liter of ultrapure water, RPMI 1640 medium (10.4 g), HEPES (2.38 g), injectable penicillin G potassium (100,000 units), streptomycin sulfate injectable (100 mg) and NaHCO3 (2.0 g) were suspended and then filter-sterilized. Then, the RPMI 1640 medium was supplemented with FCS and used for cell culture. Per liter of ultrapure water, NaCl (8.0 g), KCl (0.2 g), Na2HPO4 (1.15 g) and KH2PO4 (0.2 g) were dissolved to prepare PBS, which was then sterilized in an autoclave.
# Eriodictyol and structural analogs thereof, i.e., naringenin and hesperetin, as well as glycosides thereof, i.e., eriocitrin, naringin and hesperidin were each adjusted to 5 mM with 100% dimethyl sulfoxide (DMSO) and stored at −30° C. EGCG and (−)-gallocatechin gallate (GCG) were each adjusted to 5 mM with ultrapure water and stored at −30° C. EGCG 3″Me was adjusted to 5 mM with 10% DMSO dH2O and stored at −30° C.
# U266 adjusted to 5×10^4 cells/mL in RPMI 1640 containing 1% FCS, SOD (5 U/mL) and catalase (200 U/mL) was seeded in 24-well plates and cultured for 96 hours in the presence of EGCG and analogs thereof or eriodictyol and analogs thereof added at a final concentration of 5 μM each. After culture, viable cells were counted by trypan blue assay.
# For statistical processing of the experimental results, Student's test was used and P<0.05 was considered statistically significant in comparison with control data in the vehicle group.
compound,measurement,setting,value
O=C1C[C@@H](c2ccc(O)c(O)c2)Oc2cc(O)cc(O)c21 [eriodictyol],high-fat high-sucrose diet-induced increase in fat tissue MCP-1 expression level (mRNA),[1],no effect
same,mRNA expression level of LDLR in the liver,[2],no effect
same,enhancement of the anticancer effect (viable cells) of EGCG,[3]; combined with EGCG,remarkably enhance the anticancer effect
same,enhancement of the anticancer effect (viable cells) of EGCG 3″Me,[3]; combined with EGCG 3″Me,remarkably enhance the anticancer effect
same,enhancement of the anticancer effect (viable cells) of GCG,[3]; combined with GCG (gallocatechin gallate),remarkably enhance the anticancer effect

# From US10251408B2, “Catechin function enhancement method” (KYUSHU UNIVERSITY, NATIONAL UNIVERSITY CORPORATION, priority 2014, dated 2019)
